Experimental data reported in patent US12063929B2, “3′-alkynyl abscisic acid derivatives as ABA antagonists” (University of Saskatchewan, priority 2018, dated 2024).

Assays:
Format in all cases: in vivo
Lentil (CDC Maxim) = Lentil (CDC Maxim) seed germination assay; settings: for antagonist activity, lentil germination: 10 uM versus 10 uM ABA; for antagonist activity, lentil germination / agonist activity, lentil germination: data not shown; for agonist activity, lentil germination: 10 uM; for lentil seed germination, antagonism of ABA: 10 μM ABA plus 10 μM compound (FIG. 6C)
Method: 40 seeds were counted for each 100×15 mm petri dishes. Each petri dish contained two filter papers and 10 mL of test solutions. Then, they were wrapped with aluminium foil to cut off light. Wrapped plates were kept on lab bench at room temperature. Germinated seeds were counted everyday until one treatment reaches 100% germination (two days). Only light exposure was during plate counting. […]
All seeds from this experiment have been rinsed first with tap water and then with dH2O, frozen in liquid nitrogen and stored at −80° C. freezer.

[1] = tested on: Canola seed (Nutrien PV200); test: Canola seed germination assay; settings: 10 μM ABA, 8 day study (FIG. 10)
Method: For each treatment 6 replicates of 40 seeds were plated into petri dishes lined with two filter papers and 10 mL of test solution. The covered dishes were stored at room temperature in the dark. Germinated seeds were counted every 2 days for 8 days. The following dosages were used when studying the effect of exemplary compounds on canola germination: control 1% DMSO. 10 μM ABA, 100 μM 1019, and 100 μM 1019 plus 10 μM ABA.

Hard Red Spring wheat = Hard Red Spring wheat seedling growth (root and shoot length); settings: 10 μM ABA, 72 h
Method: For each treatment 3 replicates of 10 seeds were plated into petri dishes lined with two filter papers and 10 mL of test solution. The covered dishes were stored at room temperature in the dark. At 72 hours, germinated seeds were scored for root length and shoot length. The following dosages were used when studying the effect of the exemplary ABA analogues of the application on wheat shoot and root growth: control 1% DMSO. 10 μM ABA, 10 μM 1019, 100 μM exemplary compound 1019, 10 μM exemplary compound 1019 plus 10 μM ABA […] and 100 μM exemplary compound 1019 plus 10 μM ABA […].

[2] = 100 μM compound, in the presence of 10 μM ABA (FIG. 5)
[3] = 100 μM compound alone, compared to control (FIG. 6A)
[4] = 100 μM compound plus 10 μM ABA (FIG. 6B)

In the case of `CC1=CC(=O)CC(C)(C)[C@@]1(O)/C=C/C(C)=C\C(=O)O` [ABA, (2Z,4E)-5-[(1S)-1-hydroxy-2,6,6-trimethyl-4-oxocyclohex-2-en-1-yl]-3-methylpenta-2,4-dienoic acid, reference compound], the lentil seed germination (Lentil (CDC Maxim); 10 uM ABA alone, day one (FIG. 3A)) was “completely inhibited”, the canola seed germination [1] was “inhibited seed germination” and the shoot growth (Hard Red Spring wheat) was “inhibited”.
With `CCc1ccc(C#CC2=C(C)[C@](O)(/C=C/C(C)=C\C(=O)O)C(C)(C)CC2=O)cc1` [Compound 1025, (2Z,4E)-5-((S)-3-((4-Ethylphenyl)ethynyl)-1-hydroxy-2,6,6-trimethyl-4-oxocyclohex-2-en-1-yl)-3-methylpenta-2,4-dienoic acid] the lentil seed germination (Lentil (CDC Maxim); compound at 1 uM) was “most highly promoted”.
With `CCC(O)(C#CC1=C(C)[C@](O)(/C=C/C(C)=C\C(=O)O)C(C)(C)CC1=O)CC` [Compound 1059, (2Z,4E)-5-((S)-3-(3-ethyl-3-hydroxypent-1-yn-1-yl)-1-hydroxy-2,6,6-trimethyl-4-oxocyclohex-2-en-1-yl)-3-methylpenta-2,4-dienoic acid] the “antagonist activity, lentil germination” value (Lentil (CDC Maxim)) was “weak antagonist activity” and the “agonist activity, lentil germination” value (Lentil (CDC Maxim)) was “no agonist activity”.
`CC1=C(C#C/C(C)=C\CO)C(=O)CC(C)(C)[C@@]1(O)/C=C/C(C)=C\C(=O)O` [Compound 1063, (2Z,4E)-5-((S)-1-hydroxy-3-((Z)-5-hydroxy-3-methylpent-3-en-1-yn-1-yl)-2,6,6-trimethyl-4-oxocyclohex-2-en-1-yl)-3-methylpenta-2,4-dienoic acid] was tested, and the “antagonist activity, lentil germination” value (Lentil (CDC Maxim)) was “weak antagonist activity” and the “agonist activity, lentil germination” value (Lentil (CDC Maxim)) was “no agonist activity”.
With `CC1=C(c2ccccc2)C(=O)CC(C)(C)[C@@]1(O)/C=C/C(C)=C\C(=O)O` [Compound 1080, (2Z,4E)-5-((S)-3-hydroxy-2,4,4-trimethyl-6-oxo-3,4,5,6-tetrahydro-′[1,1′-biphenyl]-3-yl)-3-methylpenta-2,4-dienoic acid] the lentil seed germination (Lentil (CDC Maxim); [2]) was “weakly promoted”.
For `CC1=C(/C=C/c2ccccc2)C(=O)CC(C)(C)[C@@]1(O)/C=C/C(C)=C\C(=O)O` [Compound 1090, (2Z,4E)-5-((S)-1-hydroxy-2,6,6-trimethyl-4-oxo-3-((E)-styryl)cyclohex-2-en-1-yl)-3-methylpenta-2,4-dienoic acid], the lentil seed germination (Lentil (CDC Maxim); [2]) was “promoted”.
With `CC1=C(C#Cc2ccc(O)cc2)C(=O)CC(C)(C)[C@@]1(O)/C=C/C(C)=C\C(=O)O` [Compound 1091, (2Z,4E)-5-((S)-1-hydroxy-3-((4-hydroxyphenyl)ethynyl)-2,6,6-trimethyl-4-oxocyclohex-2-en-1-yl)-3-methylpenta-2,4-dienoic acid] the “lentil seed germination, antagonism of ABA” value (Lentil (CDC Maxim)) was “effective antagonists”, the lentil seed germination (Lentil (CDC Maxim); [3]) was “no effect” and the lentil seed germination (Lentil (CDC Maxim); [4]) was “overcame the effect”.
`CC1=C(C#CC2CCCCC2)C(=O)CC(C)(C)[C@@]1(O)/C=C/C(C)=C\C(=O)O` [Compound 1100, (2Z,4E)-5-((S)-3-(cyclohexylethynyl)-1-hydroxy-2,6,6-trimethyl-4-oxocyclohex-2-en-1-yl)-3-methylpenta-2,4-dienoic acid] was tested, and the “lentil seed germination, antagonism of ABA” value (Lentil (CDC Maxim)) was “effective antagonists”, the lentil seed germination (Lentil (CDC Maxim); [3]) was “no effect” and the lentil seed germination (Lentil (CDC Maxim); [4]) was “overcame the effect”.
